The values below come from BindingDB's records for doi:10.1016/j.bioorg.2013.11.005 (Sastra University, 2014).

Assay [1] concerns the target Ribonuclease pancreatic (Bos taurus) (UniProt P61823).
The target in another assay is Angiogenin (Homo sapiens, UniProt P03950). The assay can be described thus: Inhibition Kinetics with Angiogenin. Particulars: pH 6. As to the method:
The assay was carried out in oligovinylsulfonic acid free 0.1 M Mes-NaOH buffer (pH 6.0) containing 0.1 M NaCl using substrate concentration from 20 to 122 nM. The concentration of compounds 2, 3, 4 and 5 ranged from 0 to 0.8, 0 to 1.2, 0 to 1.2 and 0 to 2.5 mM, respectively. The angiogenin concentration was 0.36 µM.

Chain of Angiogenin (P03950 whole entry): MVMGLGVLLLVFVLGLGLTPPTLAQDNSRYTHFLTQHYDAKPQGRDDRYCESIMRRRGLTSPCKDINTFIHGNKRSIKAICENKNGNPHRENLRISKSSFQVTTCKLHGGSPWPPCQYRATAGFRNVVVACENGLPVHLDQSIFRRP
Chain of Ribonuclease pancreatic (Bos taurus) (P61823 whole entry, looked up): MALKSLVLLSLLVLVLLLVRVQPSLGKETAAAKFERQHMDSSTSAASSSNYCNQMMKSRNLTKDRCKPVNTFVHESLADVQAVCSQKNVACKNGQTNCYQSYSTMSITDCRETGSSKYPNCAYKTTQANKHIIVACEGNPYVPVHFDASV

A word on the Ki: it is a measure of affinity in units of concentration, obtained from inhibition or displacement. Lower therefore signals tighter binding. Take `Cc1cn([C@H]2C[C@@H](NC(=O)CC(=O)O)[C@@H](CO)O2)c(=O)[nH]c1=O` [N-[2-Hydroxymethyl-5-(5-methyl-2,4-dioxo-3,4-dihydro-2H-pyrimidin-1-yl)-tetrahydro-furan-3-yl]-malonamic acid (Compound 6)]: the Ki was found to be 380 µM in assay [1] and 1110 µM on Angiogenin.

On to `Cc1cn([C@H]2C[C@@H](NC(=O)C(=O)O)[C@@H](CO)O2)c(=O)[nH]c1=O` [N-[2-Hydroxymethyl-5-(5-methyl-2,4-dioxo-3,4-dihydro-2H-pyrimidin-1-yl)-tetrahydro-furan-3-yl]-oxalamic acid (Compound 5)], for which the Ki in assay [1] turned out to be 132 µM; at Angiogenin, 775 µM.

In the case of `Cc1cn([C@H]2C[C@@H](NC(=O)C(N)CO)[C@@H](CO)O2)c(=O)[nH]c1=O` (stereo partly drawn) [Ser-aT (Compound 2)], the Ki in assay [1] is 80 µM; on Angiogenin it was 427 µM.

Take `Cc1cn([C@H]2C[C@@H](NC(=O)C(N)Cc3ccc(O)cc3)[C@@H](CO)O2)c(=O)[nH]c1=O` (stereo partly drawn) [Tyr-aT (Compound 3)]: the Ki in assay [1] is 451 µM; on Angiogenin, 1250 µM.
